Data from PMC11016601, “Exploring the bioaccessibility and intestinal absorption of major classes of pure phenolic compounds using in vitro simulated gastrointestinal digestion” (Heliyon, 2024).
“And” between values parts separate entries of the source, which are not always exact repeats. Equal values may be shown once. Read-outs that look alike come from different tables or passages of the source. Marks after values point to notes of the source that are not given here.

Experiments:
[1] = Simulation of intestinal absorption using a dialysis membrane (3 kDa) after in vitro SGD
Description: HPLC-grade methanol, water, and acetonitrile were supplied by Fisher Scientific Chemicals. The enzymes α-amylase (A1031), pepsin from porcine stomach mucosa (P7012), pancreatin from porcine pancreas (P7545), and bile salts (B863) were purchased from Sigma-Aldrich (Taufkirchen, Germany). The rabbit gastric extract (RGE15) with gastric lipase activity was purchased from Lipolytech (Marseille, France). The ethanol was purchased from Merck (Algés, Portugal). A dialysis membrane with a molecular pore size of 3 kDa was purchased from Spectra/Pro (Spectrum Lab, Breda, Netherlands).
(§1) Mouth digestion of each PC solution (1 mL) was diluted in 0.8 mL of simulated salivary fluid (SSF) and α-amylase (75 U mL-1). Then, the mixture was incubated for 2 min at 37 °C under agitation (200 rpm). In order to start gastric digestion, pH was adjusted to 3.0 using 1 M aqueous HCl and then, a pepsin solution (2000 U mL-1) and simulated gastric fluid (SGF) were added. Subsequently, the mixture was incubated for 2h, at 37 °C and 130 rpm orbital agitation for the stomach digestion. Finally, the small intestine digestion simulation was performed after pH adjustment to 7.0 using 1 M aqueous […] and the addition of pancreatin (100 U mL-1), bile salts solution (10 mM) and simulated intestinal fluid (SIF), during 2 h, at 37 °C with 45 rpm orbital agitation. Natural small intestine absorption was also simulated, by placing the remaining sample in a dialysis membrane, and immersed in distilled water overnight at room temperature.
Furthermore, to determine the intestinal absorption, the aliquots collected inside the dialysis membrane were analyzed. The concentration of these samples (from inside of the membrane) corresponds to the amount of each PC that has not passed through to the outside of the membrane.
(§2) The values of B% and IA% were the average of the three replicates performed, with the calculated standard deviation.

[2] = In vitro simulated gastrointestinal digestion (SGD, INFOGEST 2.0): concentration and bioaccessibility by UHPLC-DAD-MSn; details: for Bioaccessibility (%), initial solution (IS): reference
Description: Preliminary solubility tests in different solvents, namely water, sodium phosphate buffer (26.8 mM, pH 6.1), ethanol, and also a mixture of ethanol with both water and sodium phosphate buffer, were carried out for each PC (data not shown), to prevent erroneous data arising from compounds precipitation. Ethanol percentages used in these preliminary solubility tests were 10, 15, and 20% (v/v).
Each PC solubilized in ethanol:water (15% v/v) was then submitted to an in vitro SGD (INFOGEST 2.0), according to a standardized protocol (Fig. 2). In order to determine whether the interaction between the compounds and enzymes led to an underestimation of their content, each PC solution was submitted to the same digestion procedure, replacing the enzyme solutions with water, which were designed as controls, henceforth this will be the term used. Each sample and control were submitted to three independent in vitro digestion simulations, and after each digestion phase, a sample/control was collected and further analyzed and quantified by UHPLC-DAD-MSn.
as §1
At each sampling point, an aliquot (0.5 mL) from each of the three replicates was collected. The enzymatic activity was stopped immediately by adding pure methanol to each aliquot (1:1, v/v) to promote enzyme precipitation and subsequently centrifuged at 10 000 g and 4 °C for 5 min. The supernatants were filtered with a 0.2 μm nylon filter. To determine the concentration of each sample or control, it was considered the following dilution factor – 1:2, 1:4 and 1:8 for oral, gastric and intestinal digestion phase, respectively.
The bioaccessibility percentage (B%) of each PC was calculated using equation (1):(1) B(%)=[DS]/[IS]×100 where IS is the initial concentration of PCs in ethanol:water (15% v/v) solutions, DS is the concentration of each collected sample or control (without enzymes).
as §2
PCs were analyzed in a UHPLC system equipped with a variable loop Accela autosampler (set at 16 °C), an Accela 600 LC pump, and an Accela 80 Hz photo diode array detector (DAD) (Thermo Fisher Scientific, San Jose, CA, USA). Each sample was prepared in methanol:water (1:1, v/v) and filtered through a 0.2 μm nylon syringe filter. […] The mobile phase was composed of acetonitrile (A) and water:acetonitrile (99:1, v/v) (B), both with 0.1 % of formic acid. The gradient elution was performed as follows: 0–1min: 99% B; 1–17 min: 99-73% B, 17–20 min: 73-0% B, 20–25 min: 0–99% B, followed by re-equilibration of the column at 99% B for 4 min.

Caco-2 cell monolayers = details: Caco-2 monolayers; cited from earlier work
[3] = controls (without enzymes), gastric phase
[4] = controls (without enzymes), initial solution
[5] = controls (without enzymes), intestinal phase
[6] = controls (without enzymes), oral phase
[7] = samples with enzymes, after gastric digestion pH 3.0
[8] = samples with enzymes, after intestinal digestion pH 7.0
[9] = samples with enzymes, after oral digestion
[10] = samples with enzymes, gastric phase
[11] = samples with enzymes, intestinal phase
[12] = samples with enzymes, oral phase
[13] = samples, initial ethanol:water (15% v/v) solution

| Compound | Concentration, dialysis phase (D) [1] | Concentration, dialysis phase (D) ([1]; pig) | Bioaccessibility (%), oral phase (O) ([2]; 2 min) | Bioaccessibility (%), gastric phase (G) [2, 3] | Concentration, gastric phase (G) [2, 3] | Concentration, initial solution (IS) [2, 4] | Bioaccessibility (%), initial solution (IS) [2, 4] | Bioaccessibility (%), intestinal phase (I) [2, 5] | Concentration, intestinal phase (I) [2, 5] | Bioaccessibility (%), oral phase (O) [2, 6] | Concentration, oral phase (O) [2, 6] | Concentration, gastric phase (G) [2, 7] | Concentration, intestinal phase (I) [2, 8] | Concentration, oral phase (O) [2, 9] | Bioaccessibility (%), gastric phase (G) [2, 10] | Bioaccessibility (%), intestinal phase (I) [2, 11] | Bioaccessibility (%), oral phase (O) [2, 12] | Concentration, initial solution (IS) [2, 13] | Bioaccessibility (%), initial solution (IS) ([2]; samples, initial solution) | Intestinal absorption (IA%) [1] | also measured |
| --- | --- | --- | --- | --- | --- | --- | --- | --- | --- | --- | --- | --- | --- | --- | --- | --- | --- | --- | --- | --- | --- |
| O=C1C[C@@H](c2ccc(O)cc2)Oc2cc(O)cc(O)c21 [NAR, (+)-naringenin] | 3.29 ± 0.96 µg/mL | 17.50 ± 3.80 µg/mL | 97.26 ± 5.50% | 84.37% and 84.37 ± 4.60% | 301.86 ± 16.45 µg/mL | 357.76 µg/mL | 100% | 68.99% and 68.99 ± 33.64% | 246.82 ± 120.35 µg/mL | 102.62% and 102.62 ± 1.12% | 367.13 ± 4.00 µg/mL | 282.96 ± 24.94 µg/mL | 233.10 ± 102.39 µg/mL | 347.95 ± 19.67 µg/mL | 79.09% and 79.09 ± 6.97% | 65.15% and 65.15 ± 28.62% | 97.26% | 357.76 µg/mL | 100% | – | – |
| O=C(CCc1ccc(O)cc1)c1c(O)cc(O)cc1O [PH, phloretin] | 17.18 ± 2.01 µg/mL | 26.35 ± 10.09 µg/mL | 96.46 ± 10.69^ a % | 91.73% and 91.73 ± 13.24 ^a,b % | 264.55 ± 38.18 µg/mL | 288.39 µg/mL | 100 ^a,b % | 58.91% and 58.91 ± 16.19 ^b % | 169.91 ± 46.69 µg/mL | 111.74% and 111.74 ± 7.23^ a % | 322.24 ± 20.85 µg/mL | 210.15 ± 21.97 µg/mL | 148.67 ± 32.07 µg/mL | 278.19 ± 30.82 µg/mL | 72.87 ± 7.62 ^a,b % | 51.55% and 51.55± 11.12 ^b % | 96.46% | 288.39 µg/mL | 100^ a % | – | permeability class from Papp, apical-to-basolateral direction (Caco-2 cell monolayers): low-permeable |
| O=c1c(-c2ccc(O)cc2)coc2cc(O)ccc12 [DAID, daidzein] | below the detection limit | – | – | 70.95% and 70.95 ± 3.71 ^a % | 12.89 ± 0.67 µg/mL | 18.17 µg/mL | 100^ a % | 138.68% and 138.68 ± 9.01^ a % | 25.20 ± 1.64 µg/mL | 78.35% and 78.35 ± 24.88^ a % | 14.24 ± 4.52 µg/mL | 14.86 ± 1.98 µg/mL | 28.72 ± 2.03 µg/mL | 21.63 ± 5.52 µg/mL | 81.78% and 81.78 ± 10.87 ^a % | 158.08% and 158.08 ± 11.20^ a % | 119.06% and 119.06 ± 30.41^ a % | 18.17 µg/mL | 100^ a % | – | – |
| O=C(O[C@@H]1Cc2c(O)cc(O)cc2O[C@@H]1c1cc(O)c(O)c(O)c1)c1cc(O)c(O)c(O)c1 [EGCG, epigallocatechin-3-O-gallate] | below the detection limit | – | 38.16 ± 12.23^ b % | 61.53% and 61.53 ± 5.39 ^b % | 1272.99 ± 111.59 µg/mL | 2068.93 µg/mL | 100^ a % | 5.03% and 5.03 ± 0.81 ^d % | 104.15 ± 16.86 µg/mL | 34.13% and 34.13 ± 1.91 ^c % | 706.03 ± 39.46 µg/mL | 1473.22 ± 65.28 µg/mL | 312.22 ± 46.76 µg/mL | 789.50 ± 253.03 µg/mL | 71.21% and 71.21 ± 3.16 ^a % | 15.09% and 15.09 ± 2.26 ^b % | 38.16% | 2068.93 µg/mL | 100^ a % | very high | – |
| O=c1oc2c(O)c(O)cc3c(=O)oc4c(O)c(O)cc1c4c23 [EA, ellagic acid] | below the detection limit | – | – | – | – | – | – | – | – | – | – | – | 5.20 ± 0.10 µg/mL | 4.78 ± 1.75 µg/mL | – | – | – | – | – | very high | – |
| Oc1cc(O)cc(O)c1 [PG, phloroglucinol] | 225.29 ± 125.33 µg/mL | 555.31 ± 145.46 µg/mL | 92.78 ± 5.91^ b % | 91.32% and 91.32 ± 3.79 ^a % | 4765.51 ± 197.78 µg/mL | 5218 µg/mL | 100 ^a % | 94.91% and 94.91 ± 5.32 ^a % | 4952.79 ± 277.44 µg/mL | 94.08% and 94.08 ± 1.84 ^a % | 4909.58 ± 96.26 µg/mL | 4910.12 ± 200.81 µg/mL | 8339.90 ± 994.21 µg/mL | 4841.66 ± 308.60 µg/mL | 94.09% and 94.09 ± 3.85^ b % | 159.82% and 159.82 ± 19.05^ a % | 92.78% | 5218 µg/mL | 100^ b % | – | – |
